Reference: patent publication US20110218100A1 (priority 2005, published 2011)

Key:
Fusarium graminearum = assay type: in vivo; conditions: barley, curative spray, 125 g/ha of each active compound, evaluation 7 days after inoculation
[1] = system: Erysiphe graminis f.sp. tritici; assay: Erysiphe test (wheat)/curative; assay type: in vivo; conditions: curative spray, 125 g/ha of each active compound, evaluation 8 days after inoculation
Procedure: (§1) Solvent: 50 parts by weight of N,N-dimethylacetamide Emulsifier: 1 part by weight of alkylaryl polyglycol ether
(§2) To produce a suitable preparation of active compound, 1 part by weight of active compound is mixed with the stated amounts of solvent and emulsifier, and the concentrate is diluted with water to the desired concentration.
To test for curative activity, young plants are sprayed with spores of Erysiphe graminis f.sp. tritici. 48 hours after the inoculation, the plants are sprayed with the preparation of active compound at the stated application rate. The plants are placed in a greenhouse at a temperature of about 20° C. and a relative atmospheric humidity of about 80% to promote the development of mildew pustules. Evaluation is carried out 8 days after the inoculation. What is determined is the efficacy in %. 0% means an efficacy which corresponds to that of the control, whereas an efficacy of 100% means that no infection is observed.

Penicillium brevicaule = Penicillium brevicaule test (in vitro)/microtest; assay type: cell-based; conditions: 4 days incubation, optical density
Procedure: The microtest was performed in liquid medium with potato-dextrose broth (PDB) using microtitre plates.
The active compound is applied as the technical active substance dissolved in aceton.
A spore suspension of Penicillium brevicaule was used for inoculation. After 4 days of incubation by darkness under shaking (10 Hrz), the optical density in each cavity was evaluated with the aid of a microtitre plate reader.
0% means an efficacy which corresponds to that of the control, while an efficacy of 100% means that no fungal growth is observed.

Pyrenophora teres = Pyrenophora teres (barley) test/curative; assay type: in vivo; conditions: curative spray, 50 g/ha of each active compound, evaluation 8 days after inoculation
Procedure: as §1
as §2, with “desired concentration or the active compound or a combination of active compounds in a commercially available formulation is diluted with water to the desired” for “desired”
To test for curative activity, young plants are sprayed with a conidia suspension of Pyrenophora teres. The plants remain for 48 hours in an incubation cabinet at 20° C. and a relative atmospheric humidity of 100% and are then sprayed with the preparation of active compound at the stated rate of application.
The plants are placed in a greenhouse at a temperature of approximately 20° C. and a relative atmospheric humidity of approximately 80%.
The test is evaluated 8 days after the inoculation.

SMILES	Efficacy in % found (Fusarium graminearum) [%]	Efficacy in % found [1] [%]	Efficacy in % (Penicillium brevicaule; 0.03 ppm) [%]	Efficacy in % (Act = actual efficacy) (Pyrenophora teres) [%]	Efficacy in % (Penicillium brevicaule; 0.003 ppm) [%]
Cc1nn(C)c(F)c1C(=O)Nc1ccccc1C(C)CC(C)C (centres unmarked) [(I-2), N-[2-(1,3-dimethylbutyl)phenyl]-5-fluoro-1,3-dimethyl-1H-pyrazole-4-carboxamide]	42	0	16	22	–
CON=C(C(=O)OC)c1ccccc1CON=C(C)c1cccc(C(F)(F)F)c1 [(III-4), trifloxystrobin]	–	–	–	–	1
CC(C)C1CCC(Cc2ccc(Cl)cc2)C1(O)Cn1cncn1 (centres unmarked) [(II-18), ipconazole]	–	–	–	–	8
OC(Cc1ccccc1Cl)(Cn1nc[nH]c1=S)C1(Cl)CC1 (centres unmarked) [(II-15), prothioconazole]	58	33	–	22	–
Cn1cc(C(=O)Nc2ccc(F)cc2-c2ccc(Cl)c(Cl)c2)c(C(F)F)n1 [(I-23), N-(3′,4′-dichloro-5-fluoro-1,1′-biphenyl-2-yl)-3-(difluoromethyl)-1-methyl-1H-pyrazole-4-carboxamide]	–	–	–	22	–
CC(C)(C)C(O)(CCc1ccc(Cl)cc1)Cn1cncn1 (centres unmarked) [(II-17), tebuconazole]	–	–	–	22	–
CO/N=C(/C1=NOCCO1)c1ccccc1Oc1ncnc(Oc2ccccc2Cl)c1F [(III-2), fluoxastrobin]	50	39	–	22	–
